Values after ≈ are worked out from the molar mass of the structure shown.
Tests used:
[1] = MONTERO et al; cited from earlier work
L 1210 leucemia = conditions: IMBACH et al; cited from earlier work
L 1210 cell = assay: 20% cytotoxic index, trypan blue exclusion, 24 h (TEST N° 1); type: cell-based, mouse; set-up: key to DOSE CORRESPONDING TO A 20% CYTOTOXIC INDEX: N.S.: not significant; conditions: L1210 cells, 24 hours at 37° C.; for IC20: Mus musculus, read-out: DOSE COR[…] A 20% CYTOTOXIC INDEX, read-out: DOSE CORRESPONDING TO A 20% CYTOTOXIC INDEX
Description: (§1) The test used is that of W. J. Durkin et al. Cancer Research 1979, 39, 402-407, modified.
(§2) All the nitrosoureas were dissolved in 70% ethanol in the proportion of 10 mg/ml.
1--Determination of the 20% cytotoxic index
100 μl of an L 1210 cell suspension (10^6 cells per ml) in R P M I 1640 culture medium supplemented with 10% of fetal calf serum and 40 μg/ml of gentamycin, containint various doses of the products to be tested (0 to 100 μg/ml) were incubated 24 hours at 37° C. At the end of this time, the cell viability is determined by the trypan blue exclusion test. The cytotoxic index is defined by the formula: [formula]
The amount of ethanol is the same in the cultures containing the products to be tested and in the control cultures (this amount has no effect either on growth nor on cell viability).
For each product the dose which gives a cytotoxic index of 20% is determined.

melanoma B16 = assay: "in vivo" activity on melanoma B16, 20 mg/kg i.p. days 1, 5, 9; set-up: species or system mouse; conditions: for percentage of cured mice: surviving more than 60 days
Description: Female C57 B 1/6 mice were used, about 8 weeks old and weighing about 20 g, from the IFFA-CREDO center.
At day "0", each mouse received intraperitoneally an inoculum of 2×10^6 tumor cells in a volume of 0.5 ml.
After tumoral graft, distribution at random was carried out as indicated above, to obtain a control series of 8 cages and 5 experimental series of 4 cages each, and of which the mice were intended to be treated by the compounds of the invention.
(§3) The protocol was identical for the 3 tumors and the 5 compounds of the invention to be tested.
(§4) As regards the experimental series to be treated, each mouse received, at days 1, 5 and 9, intraperitoneally, a dose of 20 mg/kg of the compound to be tested, in the volume of 0.2 ml of neutralized and sterilized olive oil.
(§5) As regards the control series, each mouse received, intraperitoneally, 0.2 ml of neutralized and sterilized olive oil.
(§6) The results are expressed by the relative increase in survival (T/C×100) calculated from the average survival of the treated animals (T) and that of the control animals (C)
(§7) The mice surviving more than 60 days were considered as cured.
(§8) The figures between parentheses indicate the percentage of cured mice.

L 1210 IGR TUMOR = assay: "in vivo" activity on L1210 IGR tumor, 5 mg/kg i.p. days 1, 5, 9; set-up: species or system mouse
Description: (§9) The experiments were identical to those described in preceding paragraph 4 but lower doses were used.
The same protocol was carried out with the tumor L1210 IGR, by inoculating 10^5 tumor cells of L1210 IGR intraperitoneally in the volume of 0.2 ml then, at days 1, 5 and 9, there were injected intraperitoneally 5 mg/kg of each of the compounds to be tested.

L 1210 cells = assay: cytotoxic index after 1 h contact, potential "in vivo" activity (TEST N° 2); type: cell-based, mouse; set-up: key to CYTOTOXIC INDEX: N.S.: not significant; conditions: for CYTOTOXIC INDEX: 1 hour contact at dose giving 20% index, read after 48 hours; for POTENTIAL "IN VIVO" ACTION: active if cytotoxic index ≥40%
Description: as §1, §2
2--Determination of the potential "in vivo" activity
L 1210 cells, under conditions similar to the preceding protocol, were contacted for 1 hour with a dose of the various products tested corresponding to a cytotoxic index equal to 20%. After this time, the cells were placed in culture medium not containing nitrosoureas and incubated at 37° C. After 48 hours, the cytotoxic index was determined.

leucemia L 1210 IGR = assay: "in vivo" activity on leucemia L1210 IGR, 20 mg/kg i.p. days 1, 5, 9; set-up: species or system mouse; conditions: for percentage of cured mice: surviving more than 60 days
Description: Female DBA2 mice were used, about 8 weeks old and weighing about 20 g from the IFFA-CREDO center (les Oncins, 69210 Arbresles)
At day "0", each mouse received intraperitoneally an inoculum of […] in a volume of 0.2 ml.
After tumoral graft, the mice were distributed at random into 21 cages of 5 animals, themselves then distributed, by drawing lots, into 6 experimental series. Within these 6 experimental series, there were constituted a control series of 6 cages and 5 experimental series of 3 cages each, and of which the mice were intended to be treated by the compounds of the invention.
as §3, §4, §5, §6, §7, §8

leucemia L1210 = assay: effective "in vivo" activity in the mouse, leucemia L1210, compound 2, i.p. days 1, 5, 9
Description: The experimentation which is reported below used the compound 2 prepared according to the above example 6 (Ref. IC 81 1183).
The mice (female, average weight 20 g) used were F1 /DBA2 /C57 /B1 (Animal selection and breeding center of the Laboratories of the CNRS, Orleans, La Source).
The mice distributed in cages by drawing lots were inoculated on day "0" with 10^5 leucemia L1210 cells.
The animals were treated with the compound IC 81 1183 intraperitoneally on days 1, 5 and 9.
The suspensions were prepared just before the injection: product 2+neutralized and sterilized olive oil.
The mortality of the animals was observed regularly, the relative increase in the survival (T/C×100) was calculated from the average survival of the treated animals (T) and that of the control animals (C).

L 1210 USA Tumor = assay: "in vivo" activity on L1210 U.S.A. tumor, 5 mg/kg i.p. days 1, 5, 9; set-up: species or system mouse
Description: The tumor L1210 U.S.A. is more resistant than tumor L1210 IGR.
as §9
There were inoculated into the mice, 10^5 tumor cells of L1210 U.S.A. intraperitoneally in a volume of 0.2 ml.
At days 1, 5 and 9, the compounds of the invention under test were injected intraperitoneally, at a lower dose than that used in the experiment described at 4, that is to say in the proportion of 5 mg/kg.

Tumor LEWIS 3LL = assay: "in vivo" activity on Lewis tumor, 20 mg/kg i.p. days 1, 5, 9; set-up: species or system mouse; conditions: for percentage of cured mice: surviving more than 60 days
Description: Procedure was under the conditions which have just been described previously with regard to melanoma B16, by injecting the tumor cells, in the proportion of 2×10^6 per mouse, in the volume of 0.2 ml.
as §3, §4, §5, §6, §7, §8

[2] = compared with literature curves

SMILES | oncostatic action on L 1210 leucemia (L 1210 leucemia) | IC20 (L 1210 cell) | relative increase in survival (T/C×100) (melanoma B16) | percentage of cured mice (melanoma B16) | Average survival ±2 σm (L 1210 IGR TUMOR) | Median survival (L 1210 IGR TUMOR) | T/C × 100 (average survival) (L 1210 IGR TUMOR) | T/C × 100 (median survival) (L 1210 IGR TUMOR) | CYTOTOXIC INDEX (L 1210 cells) | POTENTIAL "IN VIVO" ACTION (L 1210 cells) | relative increase in survival (T/C×100) (leucemia L 1210 IGR) | percentage of cured mice (leucemia L 1210 IGR) | Average survival ±2 σm (L 1210 USA Tumor) | Median survival (L 1210 USA Tumor) | T/C × 100 (average survival) (L 1210 USA Tumor) | T/C × 100 (median survival) (L 1210 USA Tumor) | relative increase in survival (T/C×100) (Tumor LEWIS 3LL) | percentage of cured mice (Tumor LEWIS 3LL) | further results
O=NN(CCCl)C(=O)N[C@@H]1O[C@H](CO)[C@@H](O)[C@H](O)[C@H]1O [1-[3-(2-chloro-ethyl) 3-nitroso-ureido]-1-beta-D-glucopyranose] | – | – | – | – | – | – | – | – | – | – | – | – | – | – | – | – | – | – | toxicity on the bone marrow [1]: lower toxicity on the bone marrow
CC(=O)OC[C@H]1O[C@@H](NC(=O)N(CCCl)N=O)[C@H](OC(C)=O)[C@@H](OC(C)=O)[C@@H]1OC(C)=O [2,3,4,6-tetra-O-acetyl 1-[3-(2-chlor-ethyl)nitroso-3-ureido]-1-desoxy-beta-D-glucopyranose] | – | – | – | – | – | – | – | – | – | – | – | – | – | – | – | – | – | – | toxicity on the bone marrow [1]: lower toxicity on the bone marrow
CC(=O)OC[C@H]1OC(OC(C)=O)[C@H](NC(=O)N(CCCl)N=O)[C@@H](OC(C)=O)[C@@H]1OC(C)=O (some centres unmarked) [GCNU, 3-(2-chloro-1-ethyl-2'-desoxy-glucopyranosyl-14,3',4",6'-tetracetate)nitrosourea] | oncostatic action | – | – | – | – | – | – | – | – | – | – | – | – | – | – | – | – | – | –
CO[C@@H]1C[C@@H](NC(=O)N(CCCl)N=O)[C@H](O)[C@@H](C)O1 [IC 1183, Methyl 3-[3-(2-chloroethyl) 3-nitrosoureido] 2,3,6-tridesoxy α-D-arabinohexopyranoside] | – | 50 µg/mL (≈ 169 µM) | 234 | 5% | 18,7 ± 1,30 | 19 | 207 | 210 | 77% | + (if the cytotoxic index was equal to or greater than 40%, the product concerned would be active "in vivo" in the mouse) | .infin. (The sign 00 indicates that 50% at least of the mice were cured) | 100% | 13,5 ± 0,91 | 14,0 | 157 | 161 | .infin. (The sign 00 indicates that 50% at least of the mice were cured) | 75% | T/C (×100) (leucemia L1210; 1.25 mg/kg i.p. days 1, 5, 9): 118; T/C (×100) (leucemia L1210; 2.50 mg/kg i.p. days 1, 5, 9): 158; T/C (×100) (leucemia L1210; 5 mg/kg i.p. days 1, 5, 9): 170; T/C (×100) (leucemia L1210; 10 mg/kg i.p. days 1, 5, 9): 220; T/C (×100) (leucemia L1210; 20 mg/kg i.p. days 1, 5, 9): 00 (T/C=00: for definition: more than 50% of the treated animals were finally cured); T/C (×100) (leucemia L1210; 40 mg/kg i.p. days 1, 5, 9): 00 (T/C=00: for definition: more than 50% of the treated animals were finally cured); T/C (×100) (leucemia L1210; 50 mg/kg i.p. days 1, 5, 9): 100; T/C above 40 mg/kg (leucemia L1210; after 40 mg/kg, rise in toxicity): sudden drop of the T/C; curve of efficiency vs CCNU and Me CCNU (leucemia L1210; [2]): very distinctly higher than those obtained by CCNU and Me CCNU; curve of efficiency vs RFCNU and RPCNU (leucemia L1210; [2]): as good as that obtained with RFCNU and RPCNU; animals cured finally (leucemia L1210; doses of 20 and 40 mg/kg): all the animals at doses of 20 and 40 mg/kg were cured finally; Toxicity (leucemia L1210; ≥60 mg/kg i.p. days 1, 5, 9): Toxicity
CO[C@@H]1C[C@@H](O)[C@H](O)[C@@H](CNC(=O)N(CCCl)N=O)O1 [IC 1350] | – | – | 225 | 5% | 14,3 ± 1,23 | 14,25 | 158 | 157 | N.S. | – | 362 | 20% | 10,5 ± 0,74 | 10,25 | 126 | 118 | 325 | 40% | DOSE CORRESPONDING TO A 20% CYTOTOXIC INDEX (L 1210 cell): N.S.
CO[C@@H]1C[C@@H](NC(=O)N(CCCl)N=O)[C@H](OC)[C@@H](C)O1 [IC 1373, Methyl 3-[3-(2-chloroethyl) 3-nitrosoureido] 2,3,6-tridesoxy 4-O-methyl alpha-D-arabinohexopyranoside] | – | 80 µg/mL (≈ 258 µM) | 165 | 0% | 12,9 ± 0,55 | 13,1 | 142 | 145 | 68% | + (if the cytotoxic index was equal to or greater than 40%, the product concerned would be active "in vivo" in the mouse) | .infin. (The sign 00 indicates that 50% at least of the mice were cured) | 100% | 10,6 ± 0,44 | 10,6 | 123 | 122 | 316 | 30% | –
CO[C@@H]1C[C@@H](N(C)C(=O)N(CCCl)N=O)[C@H](O)[C@@H](C)O1 [IC 1375, Methyl 3-[3-(2-chloroethyl) 1-methyl 3-nitrosoureido] 2,3,6-tridesoxy α-D-arabinohexopyranoside] | – | 60 µg/mL (≈ 194 µM) | – | – | – | – | – | – | 69% | + (if the cytotoxic index was equal to or greater than 40%, the product concerned would be active "in vivo" in the mouse) | – | – | – | – | – | – | – | – | –
CC1(C)O[C@@H]2[C@@H](COC(=O)c3ccc([N+](=O)[O-])cc3)OC(NC(=O)N(CCCl)N=O)[C@@H]2O1 (some centres unmarked) [RFCNU, 1-(2-chloro-ethyl)3-(ribofuranosyl-2',3'-isopropylidene-5-paranitro benzoate)-nitrosourea] | oncostatic action | – | – | – | – | – | – | – | – | – | – | – | – | – | – | – | – | – | –
CC(=O)O[C@@H]1[C@H](OC(C)=O)COC(NC(=O)N(CCCl)N=O)[C@@H]1OC(C)=O (some centres unmarked) [RPCNU, 1-(2-chloro-ethyl) 3-(ribopyranosyl-2',3',4'-triacetate)-nitrosourea] | oncostatic action | – | – | – | – | – | – | – | – | – | – | – | – | – | – | – | – | – | –
CC(=O)O[C@H]1[C@H](OC(C)=O)COC(NC(=O)N(CCCl)N=O)[C@@H]1OC(C)=O (some centres unmarked) [XPCNU, 1-(2-chloro-ethyl) 3-(xylopyranosyl 2',3',4'-triacetate)-nitrosourea] | oncostatic action | – | – | – | – | – | – | – | – | – | – | – | – | – | – | – | – | – | –

— US4902791A, “Nitrosourea derivatives, process for their preparation and medicaments containing them” (Sanofi S.A., priority 1983, dated 1990)
